Patent US5000959A, “Liposome composition and production thereof” (Takeda Chemical Industries, Ltd., priority 1989, dated 1991)

Experiment: Phase transition temperature (differential thermal analysis)
Type: physicochemical
Details: single phospholipid
Protocol: Phase transition temperature was determined by differential thermal analysis.

Substance	phase transition temperature (found value) of phospholipid [°C]
palmitoylstearoylphosphitadylcholine [PSPC]	47.4
steroylpalmitoylphosphitdylcholine [SPPC]	44.0
